Assay results published in article PMC12040169 (PLOS Biology, 2025).

Experiment: in vitro
Settings: human, hela cells

SMILES	viability at 28.5 h, 10 µM (% viability) [%]	viability at 28.5 h, 10 µM [%]
Cc1c(NC(=O)C2CCN(c3ccccc3Cl)C2)nnn1C (stereo not shown) [CBK306263]	90.7	–
Cn1cnc2cc(-c3nnn[nH]3)ccc21 [CBK306265]	90.2	–
Cn1c(=O)n(C)c2cc(S(=O)(=O)NCC3(N)CCOCC3)ccc21 [CBK306266]	113	–
Cc1ccc2[nH]c3c(c2c1)CC(NS(=O)(=O)c1c(N)noc1C)CC3 (stereo not shown) [CBK306270]	86.6	–
Cc1occc1C(=O)Nc1nc(CC(=O)N2CC(C)SC(C)C2)cs1 (stereo not shown) [CBK306271]	87.8	–
CC(C)Cn1cnc(S(=O)(=O)N2CCC(Cc3ccccc3)CC2)c1 [CBK306273]	92.3	–
Cc1nc(C)n(CC2CCCN(S(=O)(=O)c3cnc4ccsc4c3)C2)n1 (stereo not shown) [CBK306274]	84.3	–
COc1cc(C)nc(NCc2cnn(C)c2C)n1 [CBK306277]	85.4	–
COCC1CN(C(=O)Nc2nnc(Cc3ccc(C)cc3)s2)CCO1 (stereo not shown) [CBK306278]	83.3	–
Cn1nccc1NC(=O)Nc1ccc(CN2CCOC2=O)cc1 [CBK306279]	88	–
COCCn1c(SCc2cn3ccccc3c2C#N)nc(C)c1C [CBK306282]	92.4	–
Cc1noc(C)c1CN(C)C(=O)NC1CCCc2c1cnn2CCO (stereo not shown) [CBK306283]	92.5	–
CCc1nc(CN2CCN(c3ccc4nc(C)nn4n3)CC2)cs1 [CBK306285]	89.1	–
CCOc1cc(NC2CCN(C(=O)OC(C)(C)C)CC2)ncn1 [CBK306288]	89.6	–
CN(Cc1ccco1)C(=O)NC1CCCc2c1cnn2CCO (stereo not shown) [CBK306290]	108	–
CC(c1ccc(F)c(F)c1)N(C)C(=O)Cn1cnc2c(c1=O)CCC2 (stereo not shown) [CBK306291]	88.6	–
Cn1ncc2c1CCCC2NC(=O)N(CCO)Cc1ccccc1 (stereo not shown) [CBK306293]	86.1	–
Cc1ncc(CN(C)C(=O)c2cccc(NC(=O)C3CCCCC3)c2)s1 [CBK306295]	83	–
CCN1CCCN(c2ccc(-n3ccc(C)n3)nn2)CC1 [CBK306297]	108	–
CCn1c(CN2CCn3c(nnc3C3CC3)C2)nc2c(F)cccc21 [CBK306300]	96.6	–
Cc1ccn(-c2ccc(N3CCC4(CCOC4)C3)nn2)n1 (stereo not shown) [CBK306302]	87.8	–
Cn1ncnc1COc1ccc(S(=O)(=O)NC2CCCC2)cc1 [CBK306305]	107	–
CNC(=O)C1CCCCN1C(=O)c1cn(CCOC)c2ccccc12 (stereo not shown) [CBK306308]	94.8	–
Cn1cc(CNCCCN2CCc3ccccc32)c(-c2cccnc2)n1 [CBK306316]	93.3	–

SMILES	viability at 28.5 h, 10 µM (% viability) [%]	viability at 28.5 h, 10 µM [%]
CC(=O)N(C)Cc1cccc(Nc2ncnc3c2cnn3C)c1 [CBK306319]	95.3	–
O=C(Nc1cc(N2CCCS2(=O)=O)ccc1F)c1cccnc1O [CBK306320]	97.4	–
Cc1nc2ccccc2n1CC(=O)N(CCC#N)Cc1ccco1 [CBK306323]	86.1	–
O=C(NCCc1cccs1)NC1CCCc2c1cnn2CCO (stereo not shown) [CBK306324]	92.6	–
CCCCN(C)S(=O)(=O)NCc1cn2ccccc2n1 [CBK306329]	97.9	–
CC(C#N)(NC(=O)COc1ncnc2sc3c(c12)CCC3)C1CC1 (stereo not shown) [CBK306333]	88.1	–
N#Cc1c(F)cccc1N1CCCC(C(=O)Nc2nncs2)C1 (stereo not shown) [CBK306335]	96.8	–
CCc1nc(CC(=O)NC(c2ccc(F)cc2)C2CCCO2)cs1 (stereo not shown) [CBK306336]	117	–
CC(N(C)CC(=O)NCc1ccc(OCC(N)=O)cc1)C(C)(C)C (stereo not shown) [CBK306338]	99.2	–
CCOCCCNC(=O)C1CCN(c2cccc(F)c2C#N)CC1 [CBK306341]	91.9	–
O=C(NC1CC1)C1CCN(Cn2nnc3ccccc3c2=S)CC1 [CBK306342]	94.1	–
N#Cc1cccc(C(=O)NCC2(N3CCOCC3)CCSC2)c1 (stereo not shown) [CBK306344]	121	–
CN(CC(N)=O)c1nc(-c2cccnc2)nc2ccccc12 [CBK306346]	87	–
Cc1ccnc(NCC2CCN(c3ccc4nnnn4n3)C2)c1 (stereo not shown) [CBK306348]	57.3	–
Cc1ccsc1CN(C)C(=O)NC1CCCc2c1cnn2CCO (stereo not shown) [CBK306349]	83	–
COCCSCc1cn2cc(Br)ccc2n1 [CBK306361]	96.5	–
Cn1cc(CCCCNC(=O)Cc2c[nH]c3ccc(Cl)cc23)cn1 [CBK306364]	76	–
Cc1ocnc1C(=O)Nc1nc2c(cc1C#N)CCC2 [CBK306365]	92.7	–
Cc1ccc(CCC(=O)Nc2nc3c(cc2C#N)CCC3)o1 [CBK306366]	67.1	–
CCCOC1CCCN(S(=O)(=O)c2cnc3ccsc3c2)C1 (stereo not shown) [CBK306367]	75.5	–
O=C1CCN(Cc2nc(-c3cccc(C(F)(F)F)c3)no2)CCN1 [CBK306368]	109	–
CC(NC(=O)CC(F)(F)F)c1nc(-c2ccncc2)cs1 (stereo not shown) [CBK306370]	88.5	–
CCN(Cc1ccc(C#N)cc1F)C(=O)C(NC(=O)OC)C(C)C (stereo not shown) [CBK306372]	86.2	–
CCNc1ncc(C(=O)N2CCOC(c3ccc(F)c(C)c3)C2)s1 (stereo not shown) [CBK306375]	95.4	–

SMILES	viability at 28.5 h, 10 µM (% viability) [%]	viability at 28.5 h, 10 µM [%]
Cc1n[nH]c(-c2ccccc2NS(=O)(=O)c2cnn(C(C)C)c2)n1 [CBK306377]	84.1	–
CC(=O)NCC1CCCN(Cc2c[nH]nc2-c2c(F)cccc2F)C1 (stereo not shown) [CBK306382]	99.6	–
O=C1NC2(CCC2)C(=O)N1Cc1nn(-c2ccccc2)c2c1CCC2 [CBK306383]	95.6	–
O=C(NCCC(=O)N1CCCCC1)c1cccc(OCc2cscn2)c1 [CBK306384]	98.5	–
Cc1cc(C(=O)NC2(C#N)CCSCC2)n(C)n1 [CBK306386]	90.9	–
CC(c1ccc(Cl)cc1Cl)N(C)C(=O)Cn1cnc2c1CCCC2 (stereo not shown) [CBK306387]	88	–
O=C(CCc1nc(=O)c2c3c(sc2[nH]1)CCC3)N1CCCCCC1 [CBK306388]	90.4	–
O=C1CCC(=O)N1CCN1CC(O)CC1c1cc(F)ccc1F (stereo not shown) [CBK306390]	92.8	–
NC(=O)Nc1ccc(C(=O)N2CCN(c3ccccc3)CC2)cc1 [CBK306392]	101	–
Cc1cc(C)c2c(OCC(=O)NC(C)C)nn(C)c2n1 [CBK306393]	87.4	–
Cn1cc(-c2nc(C3CCCCCN3C(=O)c3cc(Cl)c[nH]3)no2)cn1 (stereo not shown) [CBK306396]	86.4	–
Cc1c(C(=O)N2CC(n3cc(C(C)(C)O)nn3)C2)sc2cccc(F)c12 [CBK306398]	91.4	–
Cn1nccc1C1CCN(Cc2ccc(Oc3cnccn3)cc2)CC1 [CBK306400]	104	–
Cc1ccc(-n2nc(C(=O)NC3(C#N)CCSC3)cc2C)cc1 (stereo not shown) [CBK306403]	86.9	–
CC(NC1CCCN(c2ccc(C#N)cc2)C1=O)c1cncc(F)c1 (stereo not shown) [CBK306404]	90.7	–
CC(C)(C)C1CCC(OC(=O)Cn2nnc3ccccc3c2=O)CC1 (stereo not shown) [CBK306408]	88.9	–
CC(C)c1nc(NCCc2nnc3n2CCC3)nc(N(C)C)n1 [CBK306409]	89.1	–
COCC1CCN(c2ncc(C#N)cc2Cl)CC1 [CBK306410]	61.1	–
CC(=O)NC(CCC(N)=O)C(=O)N1CC2(CCCC2)c2c(F)cccc21 (stereo not shown) [CBK306412]	82.9	–
c1cnn(C2CCN(Cc3ccc(Oc4cnccn4)cc3)CC2)c1 [CBK306417]	85.7	–
N#Cc1nccnc1NCc1ccccc1CN1CCCC1CO (stereo not shown) [CBK306418]	102	–
CCn1c(SC(C)C(N)=O)nc2ccc(Br)cc2c1=O (stereo not shown) [CBK306424]	74.6	–
CC(C)c1nsc(NCCc2nnc3n2CCCC3)n1 [CBK306425]	92.4	–
CC(C)c1nc(NCCc2nnc3n2CCCC3)nc(N(C)C)n1 [CBK306426]	112	–

SMILES	viability at 28.5 h, 10 µM (% viability) [%]	viability at 28.5 h, 10 µM [%]
Cc1nnnn1-c1cc(NC(=O)NCCc2ccnn2C)ccc1F [CBK306428]	87.8	–
CCOC(=O)c1cnn(C2CCCN(c3cccc(C#N)n3)C2)c1 (stereo not shown) [CBK306430]	81.5	–
Cc1cnc(CN2CCNC(=O)C2c2ccccc2C(F)(F)F)o1 (stereo not shown) [CBK306431]	85.4	–
CCNC(=O)CNc1cc(C#N)ccc1C(F)(F)F [CBK306432]	86.5	–
CN1CCCc2ccc(S(=O)(=O)Nc3ccc4nncn4c3)cc21 [CBK306435]	98.6	–
CN(CC(O)CN1CCOCC1)C(=O)c1cc2sccc2[nH]1 (stereo not shown) [CBK306437]	95.8	–
Cc1csc(N2CCC(Nc3cc(CO)ccc3Cl)CC2)n1 [CBK306440]	89.7	–
CNC(=O)CN1CCN(c2cc(C#N)ccc2C(F)(F)F)CC1=O [CBK306441]	93.6	–
COC(=O)c1ccc(N2CCN(Cc3cnoc3C)C(C)C2)cc1 (stereo not shown) [CBK306442]	109	–
CC(C)c1nccn1CC(=O)N(C)C(C)c1ccc(F)c(F)c1 (stereo not shown) [CBK306443]	94.5	–
CC(C)(C)n1cc(NC2CCN(c3ccc(C#N)cc3)C2=O)cn1 (stereo not shown) [CBK306445]	85.7	–
Cc1cc(-c2nnc(NCc3ccnn3C)o2)c(C)o1 [CBK306446]	84.6	–
CCc1cc(=O)[nH]c(-c2ccc(N3CC(C(N)=O)CCC3C)nc2)n1 (stereo not shown) [CBK306448]	93.1	–
CSc1nnc(CCCNc2cccc(C#N)n2)n1CC(C)C [CBK306449]	96.8	–
O=c1c2cc(Br)cc(F)c2ncn1CCC1CCCO1 (stereo not shown) [CBK306451]	95.9	–
O=C(c1ncccc1O)N1CC(O)CC1c1cc(F)ccc1F (stereo not shown) [CBK306452]	97.9	–
Cc1occc1SCC(=O)Nc1ccc(CN2CCOCC2)cc1 [CBK306453]	89.9	–
Cn1nccc1CNc1ncn(CC(=O)N2CCCCCC2)n1 [CBK306454]	90	–
CN(C)C(=O)OCCn1c(=O)oc2cc(Cl)ccc21 [CBK306455]	–	81.9
CS(=O)(=O)NC1CCCN(c2ccc3ccccc3n2)C1 (stereo not shown) [CBK306457]	99.7	–
Cc1ccc(CS(=O)(=O)N(CC(C)C)C2CC2)c(F)c1 [CBK306460]	82.9	–
Cc1nc(-c2ccc(N3CC(C(N)=O)CCC3C)nc2)[nH]c(=O)c1C (stereo not shown) [CBK306463]	83.9	–
